Test results: PMC7288171, “Synergistic Effects of Thiosemicarbazides with Clinical Drugs against S. aureus” (Molecules, 2020)
≈ marks a conversion by molar mass, not a printed value. Like-named read-outs stand apart in the source and are kept apart here.

Key:
B. cereus ATCC 10876 = assay: MIC, broth microdilution; type: cell-based; conditions: Bacillus cereus, ATCC10876; B. c. ATCC 10876; compounds 6–9 and antibiotics; read-out: MIC
Experimental: (§1) The antibacterial activity of the thiosemicarbazides 1–9 and antibiotics (amoxicillin, gentamicin, levofloxacin, linezolid, and vancomycin) was tested on the Gram-positive strains (Microbiologics, St. Cloud, MN, USA) (S. aureus ATCC 25923, S. aureus ATCC 6538, S. epidermidis ATCC 12228, B. subtilis ATCC 6633, B. cereus ATCC 10876, M. luteus ATCC 10240), the Gram-negative strains (Microbiologics, St. Cloud, MN, USA) (E. coli ATCC 25922, K. pneumoniae ATCC 13883, P. mirabilis ATCC 12453, P. aeruginosa ATCC 9027), and clinical isolates of S. aureus (Medical University of Lublin, Lublin, Poland) (MSSA-1, MSSA-2, MSSA-3, MSSA-4, MRSA-1).

B. subtilis ATCC 6633 = assay: MIC, broth microdilution; type: cell-based; conditions: Bacillus subtilis, ATCC6633; B. s. ATCC 6633; compounds 6–9 and antibiotics; read-out: MIC
Experimental: as §1

M. luteus ATCC 10240 = assay: MIC, broth microdilution; type: cell-based; conditions: Micrococcus luteus, ATCC10240; M. l. ATCC 10240; compounds 6–9 and antibiotics; read-out: MIC
Experimental: as §1

S. aureus ATCC 25923 [1] = assay: MIC, broth microdilution; type: cell-based; conditions: S. a. ATCC 25923, compounds 6–9 and antibiotics
Experimental: as §1

S. aureus ATCC 6538 = assay: MIC, broth microdilution; type: cell-based; conditions: Staphylococcus aureus, ATCC6538; S. a. ATCC 6538; compounds 6–9 and antibiotics; read-out: MIC
Experimental: as §1

[2] = test system: S. epidermidis ATCC 12228; assay: MIC, broth microdilution; type: cell-based; conditions: Staphylococcus epidermidis, ATCC12228; S. e. ATCC 12228; compounds 6–9 and antibiotics; read-out: MIC
Experimental: as §1

MRSA-1 = assay: MIC, clinical isolate of S. aureus; type: cell-based; conditions: Staphylococcus aureus; clinical isolate MRSA-1; read-out: MIC
Experimental: as §1

MSSA-1 = assay: MIC, clinical isolate of S. aureus; type: cell-based; conditions: Staphylococcus aureus; clinical isolate MSSA-1; read-out: MIC
Experimental: as §1

MSSA-2 = assay: MIC, clinical isolate of S. aureus; type: cell-based; conditions: Staphylococcus aureus; clinical isolate MSSA-2; read-out: MIC
Experimental: as §1

MSSA-3 = assay: MIC, clinical isolate of S. aureus; type: cell-based; conditions: Staphylococcus aureus; clinical isolate MSSA-3; read-out: MIC
Experimental: as §1

MSSA-4 = assay: MIC, clinical isolate of S. aureus; type: cell-based; conditions: Staphylococcus aureus; clinical isolate MSSA-4; read-out: MIC
Experimental: as §1

MTT cytotoxicity assay = type: cell-based, human; conditions: human, Hs27 foreskin fibroblast cells (ATCC CRL-1634), 25 µg/mL, 24 h, vehicle control = 100%
Experimental: (§2) A critical factor in research and development of new antibacterial agents is their abilities to selectively target bacterial cells without toxicity to mammalian cells. Thus, in order to test if antibacterial activity of title thiosemicarbazides is not due to their general toxicity, their effect on mammalian cell viability was assessed using human foreskin fibroblast Hs27 cells (CRL-1634) via MTT assay.
(§3) Cytotoxic properties of the compounds were evaluated using human foreskin fibroblast cells Hs27 (ATCC CRL-1634) (ATCC, Manassas, VA, USA) that were cultured in DMEM-high glucose (Sigma Aldrich, St. Louis, MO, USA). Medium was supplemented with 10% fetal bovine serum (FBS, Sigma Aldrich), 100 U/mL of penicillin, and […] of streptomycin (PenStrep, Sigma Aldrich, St. Louis, MO, USA). Cells were incubated at 37 °C in a humidified atmosphere of 5% CO2. Stock solutions of the tested compounds were prepared dissolving in a sterile dimethyl sulfoxide (DMSO) to the concentration of 50 mg/mL. The cells were seeded into 96-well sterile plates (Nunc) at a cell density of 1 × 10^5 cells/mL. After 24 h of incubation, the medium was removed from each well, and then cells were incubated for the next 24 h with tested compounds (in a fixed dose of 25 µg/mL) in DMEM-high glucose containing 2% FBS. Control cells were cultured only with medium containing 2% addition of FBS. Cytotoxicity of the compounds was evaluated using MTT assay, which is based on the conversion of 3-(4,5-dimethylthiazol-2-yl)-2,5- diphenyltetrazolium bromide (MTT) into dark-blue formazan crystals. Briefly, after 24-h incubation of cells with varying concentrations of the tested compounds, culture medium was removed from the plates. Cells were washed with PBS, and then 100 µL of medium containing 10% MTT solution (5 mg/mL) was added to each well. Cells were incubated for the next 3 h at 37 °C in an atmosphere of 5% CO2. Next, 100 µL (per well) of 10% sodium dodecyl sulfate (SDS) buffer solution was added to dissolve formazan crystals and after an overnight incubation the absorbance was measured at 570 nm using a microplate reader (Epoch, BioTek Instruments, Inc., Winooski, VT, USA).

[3] = test system: human foreskin fibroblast Hs27 cells (CRL-1634); assay: MTT cytotoxicity assay; type: cell-based; conditions: Homo sapiens, 24 h of treatment
Experimental: as §2, §3

S. aureus ATCC 25923 [4] = assay: Checkerboard broth dilution synergy assay; type: cell-based
Experimental: The microdilution checkerboard method was used to evaluate the synergistic effects between the thiosemicarbazides 1–9 and antibiotics, which were determined as the fractional inhibitory concentration indices (FICIs). For these experiments, amoxicillin, gentamicin, levofloxacin, linezolid, and vancomycin were selected to represent the five antimicrobial classes most commonly used in clinical practice. In this way, a total of 45 combinations of thiosemicarbazide-amoxicillin, thiosemicarbazide-gentamicin, thiosemicarbazide-levofloxacin, thiosemicarbazide-linezolid, and thiosemicarbazide-vancomycin against S. aureus ATCC 25923 were tested to identify in vitro synergy effects.
Interaction of the thiosemicarbazides 1–9 in combination with amoxicillin, gentamicin, levofloxacin, linezolid or vancomycin against S. aureus ATCC 25923 were analyzed using the checkerboard broth dilution method to determine the fractional inhibitory concentration indices (FICIs), calculated as: FIC = MIC of drug A in combination/MIC of drug A alone + MIC of drug B in combination/MIC of drug B alone. The calculated FICIs were interpreted as synergistic (FIC ≤ 0.5), additive (0.5 < FIC < 1), indifferent (1 ≤ FIC < 4.0), or antagonistic (FIC ≥ 4.0). The checkerboard assay included ciprofloxacin-carvedilol combination as positive control, whereas cefuroxime in combination with 4-(4-bromophenyl)-1-(3-fluorobezoyl)thiosemicarbazide served as negative control. The Z-factor value for the bioassay was 0.683.

[5] = target: T1, S. aureus topoisomerase IV (Staphylococcus aureus, UniProt P0C1S7+P0C1U9); assay: Topoisomerase IV decatenation assay; type: biochemical; conditions: in words; 50 and 100 µM tested (Figures S1–S3)
T1 construct: purchased Inspiralis, Norwich, UK
Experimental: Inhibition of decatenation activity of S. aureus topoisomerase IV: The assay was performed using S. aureus topoisomerase IV decatenation kits (Inspiralis, Norwich, UK). Interlinked kDNA substrate (0.5 µg) was incubated with 1 unit of topoisomerase IV (Inspiralis, Norwich, UK), in the dedicated decatenation assay buffer supplied by the manufacturer, in the presence of varying concentrations of the test compounds. Reactions were carried out at 37 °C for 1 h and then terminated by the addition of equal volume of 2 × STOP Buffer and chloroform/iso-amyl alcohol. Samples were vortexed, centrifuged, and run through a 15 cm 1% agarose gel in TAE buffer for 1.5 h at 80 V. Gels were stained with ethidium bromide and visualized under UV light.

S. aureus DNA gyrase = target: T2, S. aureus DNA gyrase (Staphylococcus aureus, UniProt P0A0K8+P20831); assay: Gyrase supercoiling assay; type: biochemical; conditions: read-out: S. aureus Gyrase DNA Inhibition (%) ± SD
T2 construct: purchased Inspiralis, Norwich, UK
Experimental: Supercoiling assay: The assays were performed using S. aureus Gyrase Supercoiling Assay Kits (Inspiralis, Norwich, UK). Briefly, […] pBR322 plasmid DNA (0.5 µg) was incubated with 1 unit of gyrase, in the dedicated supercoiling assay buffer supplied by the manufacturer, in the presence of varying concentrations of the test compounds. Reactions were carried out at 37 °C for 1 h and then terminated by the addition of equal volume of 2 × STOP Buffer (40% sucrose, 100 mM Tris-Cl pH 7.5, 1 mM EDTA, and 0.5 mg/mL bromophenol blue) and chloroform/iso-amyl alcohol. Samples were vortexed, centrifuged, and run through a 15 cm 1% agarose gel in TAE buffer (40 mM Tris-acetate, 2 mM EDTA) for 3 h at 50 V. Gels were stained with ethidium bromide and visualized under UV light.

[6] = Staphylococcus aureus, ATCC25923, read-out: MIC

MIC (B. cereus ATCC 10876)	MIC (B. subtilis ATCC 6633)	MIC (M. luteus ATCC 10240)	MIC (S. aureus ATCC 25923 [1]; [6])	MIC (S. aureus ATCC 6538)	MIC [2]	MIC (MRSA-1)	MIC (MSSA-1)	MIC (MSSA-2)	MIC (MSSA-3)	MIC (MSSA-4)	inhibitory action against topoisomerase IV [5]	melting point	Compound	viability at 24 h, 25 µg/mL (MTT cytotoxicity assay)	IC50 [3]	interaction in combination (S. aureus ATCC 25923 [4]; combination with amoxicillin)	interaction in combination (S. aureus ATCC 25923 [4]; combination with gentamicin)	interaction in combination (S. aureus ATCC 25923 [4]; combination with levofloxacin)	interaction in combination (S. aureus ATCC 25923 [4]; combination with linezolid)	interaction in combination (S. aureus ATCC 25923 [4]; combination with vancomycin)	further results
7.82 µg/mL (≈ 21.9 µM)	7.82 µg/mL (≈ 21.9 µM)	7.82 µg/mL (≈ 21.9 µM)	15.6 µg/mL (≈ 43.7 µM)	15.6 µg/mL (≈ 43.7 µM)	7.82 µg/mL (≈ 21.9 µM)	> 500 µg/mL	62.5 µg/mL (≈ 175 µM)	> 500 µg/mL	> 500 µg/mL	> 500 µg/mL	no inhibitory effects	176 to 178 °C	O=C(NNC(=S)Nc1cccc(C(F)(F)F)c1)c1ccccc1F [compound 8, 1-(2-fluorobenzoyl)-4-(3-trifluoromethylphenyl)thiosemicarbazide]	65.2%	> 25 µg/mL	indifferently	indifferently	additively	additively	indifferently	
15.6 µg/mL (≈ 42.4 µM)	15.6 µg/mL (≈ 42.4 µM)	7.82 µg/mL (≈ 21.2 µM)	62.5 µg/mL (≈ 170 µM)	62.5 µg/mL (≈ 170 µM)	31.2 µg/mL (≈ 84.9 µM)	125 µg/mL (≈ 339 µM)	62.5 µg/mL (≈ 170 µM)	> 500 µg/mL	> 500 µg/mL	125 µg/mL (≈ 339 µM)	no inhibitory effects	166 to 168 °C	O=C(NNC(=S)Nc1cccc(Br)c1)c1ccccc1F [compound 9, 4-(3-bromophenyl)-1-(2-fluorobenzoyl)thiosemicarbazide]	63.1%	> 25 µg/mL	indifferently	indifferently	additively	additively	indifferently	MIC (S. aureus ATCC 25923 [1]): 62.50 µg/mL (≈ 170 µM)

Compound	MIC (B. cereus ATCC 10876)	MIC (B. subtilis ATCC 6633)	MIC (M. luteus ATCC 10240)	MIC (S. aureus ATCC 25923 [1]; [6])	MIC (S. aureus ATCC 6538)	MIC [2]	MIC (MRSA-1)	MIC (MSSA-1)	MIC (MSSA-2)	MIC (MSSA-3)	MIC (MSSA-4)	inhibitory action against topoisomerase IV [5]	melting point	viability at 24 h, 25 µg/mL (MTT cytotoxicity assay)	IC50 [3]	interaction in combination (S. aureus ATCC 25923 [4]; combination with amoxicillin)	interaction in combination (S. aureus ATCC 25923 [4]; combination with gentamicin)	interaction in combination (S. aureus ATCC 25923 [4]; combination with levofloxacin)	interaction in combination (S. aureus ATCC 25923 [4]; combination with linezolid)	interaction in combination (S. aureus ATCC 25923 [4]; combination with vancomycin)	further results
O=C(NNC(=S)Nc1cccc(Cl)c1)c1ccccc1F [compound 7, 4-(3-chlorophenyl)-1-(2-fluorobenzoyl)thiosemicarbazide]	31.2 µg/mL (≈ 96.5 µM)	15.6 µg/mL (≈ 48.3 µM)	7.82 µg/mL (≈ 24.2 µM)	62.5 µg/mL (≈ 193 µM)	31.2 µg/mL (≈ 96.5 µM)	31.2 µg/mL (≈ 96.5 µM)	500 µg/mL (≈ 1540 µM)	125 µg/mL (≈ 386 µM)	> 500 µg/mL	125 µg/mL (≈ 386 µM)	125 µg/mL (≈ 386 µM)		158 to 160 °C	93.2%	> 25 µg/mL	additively	no interactions	synergistically	no interactions	antagonistic	MIC (S. aureus ATCC 25923 [1]): 62.50 µg/mL (≈ 193 µM); inhibition at 50 µM (S. aureus DNA gyrase; 50 µM): 23.8 ± 5.02%; inhibition at 100 µM (S. aureus DNA gyrase; 100 µM): 33.1 ± 1.04%
